According to patent publication US6787315B2, “Methods for identifying ligand binding sites in a biomolecule” (priority 2001, dated 2004):

Test system: 16S RNA versus modified 16S RNA (5IU1495)
Assay: Dissociation rate of binary ligand complexes versus relative energy (capillary exit-skimmer voltage), ESI-FT-ICR MS
Type: binding, E. coli
Conditions: Example 8: 2-deoxystreptamine 100 μM, RNAs 2.5 μM each
Description: The following examples illustrate preferred embodiments of the present invention using mass spectrometry. Experiments were performed using a 7.0 Tesla Fourier transform ion cyclotron resonance (FT-ICR) mass spectrometer with an electrospray ionization source operating in the negative mode. A −3000 V difference was employed between the spray tip and the inlet capillary to generate the electrospray. Samples were introduced at a flow rate of 1.5 uL/min using a Harvard syringe pump and a 50 uL glass syringe. The desolvation of the electrospray droplets was aided by a flow of countercurrent gas at 1 L/min. Ions were accumulated for 1.0 sec in an intermediate hexapole ion storage region at 1.0×10^−5 mbar. Following transfer to the FT-ICR analysis cell, the image current was measured over a mass range of 500-4000 m/z. Typically, a total of 32 transients containing 512 kbytes were summed prior to Fourier transformation. […]
An aqueous solution containing 50 mM ammonium acetate buffer (pH 7.0), 33% isopropyl alcohol, 2-deoxystreptamine (100 μM), 16S RNA (2.5 μM) and a modified 16S RNA (2.5 μM) was prepared. […] The peaks were integrated and ion abundances determined for each of the separate runs. Fractions of 16S+2-DOS and 5IU1495+2-DOS complexes were determined and plotted according to relative energy as depicted in FIG. 6. […]

Compound: N[C@@H]1C[C@H](N)[C@@H](O)C(O)[C@H]1O (some centres unmarked) [2-deoxystreptamine]
- Difference in dissociation rate (slope) between the 16S and 5IU1495 systems, first region (1 to 2 relative energy units (FIG. 6)): about 25%
- Dissociation rate (slope) of 16S versus 5IU1495 systems, higher energy region (2 to 4 relative energy units (FIG. 6)): substantially equal
